Test results: patent US20260035376A1, “COMPOSITIONS AND METHODS FOR INHIBITION OF RAS” (TheRas, Inc., priority 2022, published 2026)

Legend:
[1] = molecular target: T1, Avi-KRAS G12D (1-169) GppNHp/RAF1 RBD-3×FLAG (52-151) (Homo sapiens, UniProt P01116, G12D); experiment: Disrupting RAS-effector binding HTRF assay, Raf1 RBD-KRAS G12D-GppNHp; details: PPI HTRF, 50 nM Avi-KRAS G12D GppNHp, compound titration 30-0.0045 μM; read-out: Raf1 RBD-KRAS G12D-GppNHp disruption
T1 construct: 50 nM Avi-KRAS G12D (1-169) GppNHp/RAF1 RBD-3×FLAG (52-151)
T1 sequence (P01116 1-169 isoform P01116-2 G12D limits assumed): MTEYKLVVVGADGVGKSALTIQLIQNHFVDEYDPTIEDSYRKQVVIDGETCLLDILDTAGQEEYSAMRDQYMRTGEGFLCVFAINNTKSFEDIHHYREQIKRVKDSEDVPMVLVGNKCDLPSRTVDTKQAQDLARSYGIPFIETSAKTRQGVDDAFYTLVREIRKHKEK
Description: (§1) A protein:protein interaction (PPI) Homogeneous Time Resolved Fluorescence (HTRF) assay was used to determine the effectiveness of compounds of the present disclosure in disrupting KRAS protein and effector RAF1 binding.
(§2) The HTRF assay used the following reagents and proteins: (i) 50 nM Avi-KRAS G12D (1-169) GppNHp/RAF1 RBD-3×FLAG (52-151); (ii) 50 nM Avi-KRAS G12R (1-169) GppNHp/RAF1 RBD-3×FLAG (52-151); (iii) 50 nM Avi-KRAS G12V (1-169) GppNHp/RAF1 RBD-3×FLAG (52-151), (iv) 50 nM Avi-KRAS WT (1-169) GppNHp/RAF1 RBD-3×FLAG (52-151); and (v) 75 nM Avi-RAF1 RBD-3×FLAG. The assay buffer included: 50 mM Tris pH 7.5, 100 mM NaCl, 5 mM MgCl2, 0.1% BSA, […], 10% DMSO. The bead buffer included: 50 mM Tris pH 7.5, 0.01% o Tween 20. Assay volume of 20 μL was used in a 384 well plate-low volume format. Compound titration: 30-0.0045 μM, 3× dilution series.
(§3) The HTRF assay employed the following protocol:
(§4) Compounds were dispensed in assay plate (384-well, Grenier Bione #784075) using Echo (model 555) with dose response settings: 200 nL final volume, titration from 30 μM as a 10-point dilution series. Protein mix was prepared in assay buffer, and dispensed on plates, 10 μL per well, then incubated for 1 h at room temperature, with 700 rpm shaking. Reagents mix was prepared and dispensed on plates, 10 μL per well, then incubated for 1 h at room temperature, with 700 rpm shaking.
(§5) Plates were analyzed on an Envision plate reader using the following setting: Excitation 320 nm, Bandwidth 75 nM; Emission 615 nm, Bandwidth 85 nM, Gain 100%, Flashes 100, Lag 60 μs. Data were reported as percentage of activity, with DMSO as 100%. Data were plotted and analyzed using Prism 8.
(§6) The biochemical Raf1-KRAS G12D/G12R/G12V/WT-GppNHP disruption assay IC50 of selected compounds described herein are shown in Table 4.

[2] = molecular target: T2, Avi-KRAS G12V (1-169) GppNHp/RAF1 RBD-3×FLAG (52-151) (Homo sapiens, UniProt P01116, G12V); experiment: Disrupting RAS-effector binding HTRF assay, Raf1 RBD-KRAS G12V-GppNHp; details: PPI HTRF, 50 nM Avi-KRAS G12V GppNHp, compound titration 30-0.0045 μM; read-out: Raf1 RBD-KRAS G12V-GppNHp disruption
T2 construct: 50 nM Avi-KRAS G12V (1-169) GppNHp/RAF1 RBD-3×FLAG (52-151)
T2 sequence (P01116 1-169 isoform P01116-2 G12V limits assumed): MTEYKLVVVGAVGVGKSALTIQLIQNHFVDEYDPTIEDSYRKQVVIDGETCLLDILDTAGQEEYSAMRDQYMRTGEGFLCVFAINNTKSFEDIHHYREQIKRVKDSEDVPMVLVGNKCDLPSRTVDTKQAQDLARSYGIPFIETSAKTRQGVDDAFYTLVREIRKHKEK
Description: as §1, §2, §3, §4, §5, §6

[3] = molecular target: T3, Avi-KRAS G12R (1-169) GppNHp/RAF1 RBD-3×FLAG (52-151) (Homo sapiens, UniProt P01116, G12R); experiment: Disrupting RAS-effector binding HTRF assay, Raf1 RBD-KRAS G12R-GppNHp; details: PPI HTRF, 50 nM Avi-KRAS G12R GppNHp, compound titration 30-0.0045 μM; read-out: Raf1 RBD-KRAS G12R-GppNHp disruption
T3 construct: 50 nM Avi-KRAS G12R (1-169) GppNHp/RAF1 RBD-3×FLAG (52-151)
T3 sequence (P01116 1-169 isoform P01116-2 G12R limits assumed): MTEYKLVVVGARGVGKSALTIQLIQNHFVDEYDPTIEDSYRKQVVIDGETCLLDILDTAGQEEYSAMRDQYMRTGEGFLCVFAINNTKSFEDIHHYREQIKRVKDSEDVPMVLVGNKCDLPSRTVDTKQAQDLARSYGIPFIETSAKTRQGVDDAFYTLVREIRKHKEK
Description: as §1, §2, §3, §4, §5, §6

[4] = molecular target: T4, Avi-KRAS WT (1-169) GppNHp/RAF1 RBD-3×FLAG (52-151) (Homo sapiens, UniProt P01116); experiment: Disrupting RAS-effector binding HTRF assay, Raf1 RBD-KRAS WT-GppNHp; details: PPI HTRF, 50 nM Avi-KRAS WT GppNHp, compound titration 30-0.0045 μM; read-out: Raf1 RBD-KRAS WT-GppNHp disruption
T4 construct: 50 nM Avi-KRAS WT (1-169) GppNHp/RAF1 RBD-3×FLAG (52-151)
T4 sequence (P01116 1-169 isoform P01116-2 limits assumed): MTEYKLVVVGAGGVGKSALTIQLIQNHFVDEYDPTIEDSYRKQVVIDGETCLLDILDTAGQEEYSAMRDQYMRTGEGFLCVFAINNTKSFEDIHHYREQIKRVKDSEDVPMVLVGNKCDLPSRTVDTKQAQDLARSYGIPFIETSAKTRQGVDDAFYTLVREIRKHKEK
Description: as §1, §2, §3, §4, §5, §6

[5] = tested on: KRAS G12D protein/effector signaling in GP2d cells; experiment: Cell-based pERK HTRF assay in GP2d cell; details: 1 h, 60 min incubation
Description: A pERK assay (Perkin Elmer) was used to determine the effectiveness of compounds in disrupting KRAS G12D protein/effector signaling in cells.
On Day 1, cells (GP2d) were seeded into 96-well plates at 3×10^4 cells/well in 80 μL complete growth media (DMEM, 10% FBS).
(§7) On Day 2, cells were treated with compounds at 0.25% DMSO. The source plate was created with compounds diluted in media at 5-fold the final assay concentration. The compounds were run in a 9-point concentration curve starting at 1 M, with a half-log dilution between concentrations. 20 μL was transferred onto the cell plates (final volume in wells was 100 μL). Plates were harvested after 60 min incubation by aspirating media and adding kit-supplied 1× supplemented lysis buffer to all wells (50 μL per well). Plates were then placed on a plate shaker and incubated at 850 rpm for an additional 30 min.
Antibody mixture solution was prepared by diluting aliquoted d2 and Eu Cryptate antibodies 1:20 in kit supplied detection buffer, and mixing the diluted antibodies solutions (1:1 v:v). 4 μL of this solution was then added to a 384-well detection plate (Perkin Elmer; 6008230).
(§8) Samples were homogenized by pipetting up and down and then transferred (16 μL of cell lysates) from the 96-well cell culture plate to two wells of the HTRF 384-well detection plate containing the antibody solution. Plates were centrifuged (524 g for 1 min) and allowed to incubate between 4 and 24 h at room temperature. Maximum signal was reached after 4 h incubation time and remained stable over a period of 24 hours. Therefore, readings could be made between 4 and 24 h of incubation. Plates were centrifuged again (524 g for 1 min), then analyzed on the EnVision plate reader using the following settings: Excitation 320 nm, Bandwidth 75 nm; Emission 615 nm, Bandwidth 85 nm; Gain 100%; Flashes 100; Lag 60 μs.

[6] = tested on: KRAS G12V protein/effector signaling in SW620 cells; experiment: Cell-based pERK HTRF assay in SW620 cell; details: Homo sapiens, SW-620, 1 h incubation
Description: pERK assay (Perkin Elmer) was used to determine the effectiveness of compounds in disrupting KRAS G12V protein/effector signaling in cells.
On Day 1, cells (SW620) were seeded into 96-well plates at 3×10^4 cells/well in 80 μL complete growth media (DMEM, 10% FBS).
as §7, with “10 μM,” for “1 M,”, “1 h” for “60 min”
Antibody mixture solution was prepared by diluting aliquoted d2 and Eu Cryptate antibodies 1:20 in kit supplied detection buffer, and mixing the diluted antibodies solutions (1:1 v:v). Four μL of this solution was then added to a 384-well detection plate (Perkin Elmer; 6008230).
as §8

Structure (SMILES)	IC50 [1] [µM]	IC50 [2] [µM]	IC50 [3] [µM]	IC50 [4] [µM]	IC50 [5] [µM]	IC50 [6] [µM]
N#Cc1c(N)sc2c(F)ccc(-c3c(C(F)(F)F)cc4c(N5CC6CCC(C5)N6)nc(OCC(CO)CO)nc4c3F)c12 [Compound 30]	0.1 to 1	1 to 10	1 to 10	0.1 to 1	≤ 0.1	> 10
N#Cc1c(N)sc2c(F)ccc(-c3c(C(F)(F)F)cc4c(N5CC6CCC(C5)N6)nc(OCC5CCS(=O)(=O)CC5)nc4c3F)c12 [Compound 53]	0.1 to 1	1 to 10	> 10	0.1 to 1	≤ 0.1	> 10
N#Cc1c(N)sc2c(F)ccc(-c3c(C(F)(F)F)cc4c(N5CC6CCC(C5)N6)nc(OCCC5CCOC5)nc4c3F)c12 (stereo not drawn) [Compound 50]	0.1 to 1	> 10	> 10	1 to 10	≤ 0.1	> 10
CN1CCC(COc2nc(N3CC4CCC(C3)N4)c3cc(C(F)(F)F)c(-c4ccc(F)c5sc(N)c(C#N)c45)c(F)c3n2)C1=O (stereo not drawn) [Compound 55]	0.1 to 1	1 to 10	1 to 10	0.1 to 1	≤ 0.1	> 10
N#Cc1c(N)sc2c(F)ccc(-c3c(C(F)(F)F)cc4c(N5CC6CCC(C5)N6)nc(OCC5CCCOC5)nc4c3F)c12 (stereo not drawn) [Compound 48]	1 to 10	> 10	> 10	1 to 10	≤ 0.1	> 10
CN1C(=O)CC[C@@H]1COc1nc(N2CC3CCC(C2)N3)c2cc(C(F)(F)F)c(-c3ccc(F)c4sc(N)c(C#N)c34)c(F)c2n1 [Compound 57]	0.1 to 1	> 10	> 10	1 to 10	≤ 0.1	> 10
COc1c(Cl)c(-c2ccc(F)c3sc(N)c(C#N)c23)c(F)c2ncnc(N3CC4CCC(C3)N4)c12 [Compound 35]	> 10	> 10	> 10	> 10	0.1 to 1	> 10
N#Cc1c(N)sc2c(F)ccc(-c3c(C(F)(F)F)cc4c(N5CC6CCC(C5)N6)nc(OC[C@H]5COCCO5)nc4c3F)c12 [Compound 40]	0.1 to 1	1 to 10	1 to 10	0.1 to 1	≤ 0.1	> 10
N#Cc1c(N)sc2c(F)ccc(-c3c(C(F)(F)F)cc4c(N5CC6CCC(C5)N6)nc(OC[C@@H](O)CO)nc4c3F)c12 [Compound 34]	0.1 to 1	1 to 10	> 10	1 to 10	0.1 to 1	> 10
N#Cc1c(N)sc2c(F)ccc(-c3c(C(F)(F)F)cc4c(N5CC6CCC(C5)N6)nc(OCCC5CCCO5)nc4c3F)c12 (stereo not drawn) [Compound 51]	0.1 to 1	> 10	> 10	1 to 10	≤ 0.1	> 10
CN(c1nc(OCC2CCOCC2)nc2c(F)c(-c3ccc(F)c4sc(N)c(C#N)c34)c(C(F)(F)F)cc12)C1CCNCC1 [Compound 61]	1 to 10	> 10	> 10	> 10	> 1	> 10
CN1C[C@H](COc2nc(N3CC4CCC(C3)N4)c3cc(C(F)(F)F)c(-c4ccc(F)c5sc(N)c(C#N)c45)c(F)c3n2)CC1=O [Compound 33]	0.1 to 1	> 10	> 10	1 to 10	≤ 0.1	> 10
CN1C[C@@H](COc2nc(N3CC4CCC(C3)N4)c3cc(C(F)(F)F)c(-c4ccc(F)c5sc(N)c(C#N)c45)c(F)c3n2)CC1=O [Compound 56]	0.1 to 1	1 to 10	1 to 10	0.1 to 1	≤ 0.1	> 10
CN(c1nc(OCC2CCOCC2)nc2c(F)c(-c3ccc(F)c4sc(N)c(C#N)c34)c(C(F)(F)F)cc12)[C@@H]1CCCNC1 [Compound 62]	1 to 10	> 10	> 10	> 10	> 1	> 10
N#Cc1c(N)sc2c(F)ccc(-c3c(C(F)(F)F)cc4c(N5CC6CCC(C5)N6)nc(OCCO)nc4c3F)c12 [Compound 32]	0.1 to 1	> 10	> 10	1 to 10	≤ 0.1	> 10
N#Cc1c(N)sc2c(F)ccc(-c3c(C(F)(F)F)cc4c(N5CC6CCC(C5)N6)nc(O)nc4c3F)c12 [Compound 43]	> 10	> 10	> 10	> 10	> 1	> 10
N#Cc1c(N)sc2c(F)ccc(-c3c(C(F)(F)F)cc4c(N5CC6CCC(C5)N6)nc(OCC5CCCCO5)nc4c3F)c12 (stereo not drawn) [Compound 49]	1 to 10	> 10	> 10	1 to 10	≤ 0.1	> 10
